Experimental data: patent US20110166118A1, “NEW TRINEM ANTIBIOTICS AND INHIBITORS OF BETA-LACTAMASES” (LEK PHARMACEUTICALS D.D., priority 2008, published 2011)
pIC50: −log10 of the molar value.

Experiments:
[1] = biological target: class A beta-lactamase SHV-1 (Escherichia coli, UniProt P0AD63); assay: IC50 determination with nitrocefin, SHV-1; format: biochemical, E. coli
Description: (§1) The IC50 value represents the concentration of inhibitor required to effect a 50% loss of activity of free enzyme. A standard test for the production of beta-lactamase involves use of the chromogenic cephalosporin, nitrocefin.
(§2) Homogeneously purified class A beta-lactamases TEM-1 and SHV-1 from E. coli and class C enzyme P99 from Enterobacter cloaca were employed in the assay.
(§3) All the enzymes and compounds were dissolved in 50 mM phosphate buffer pH 7.0 and all further dilutions were done with the same buffer solution. Enzyme and compound dilutions were pre-incubated for 30 min at 37° C. and in a final volume of 500 μl. Than 10 μl of 5 mM nitrocefin (reporter substrate) was added to the solution and the absorbance at 482 nm was measured during 2 to 5 minutes. The initial rate was calculated for all the different solutions.

[2] = biological target: class C beta-lactamase P99 (AmpC) (Enterobacter cloacae, UniProt P05364); assay: biochemical; format: biochemical
Description: as §1, §2, §3

[3] = biological target: class A beta-lactamase TEM-1 (Escherichia coli, UniProt P62593); assay: IC50 determination with nitrocefin, TEM-1; format: biochemical, E. coli; conditions: pre-incubated 30 min at 37° C., phosphate buffer pH 7.0, nitrocefin
Description: as §1, §2, §3

[4] = tested on: K. pneumoniae B312 (SHV-18); assay: Broth microdilution MIC, S6; format: cell-based; conditions: Klebsiella pneumoniae, CAMHB, 35° C., 24 h, duplicate
Description: (§4) Stock solutions of the test compounds and Tazocin® were prepared in distilled water according to the CLSI guidelines [Methods for dilution antimicrobial tests for bacteria that grow aerobically. NCCLS document M7-A5; 2000; vol. 19. Clinical and Laboratory Standards Institute, Villanova, Pa.].
(§5) All tested strains and clinical isolates were either purchased from the American Type Culture Collection (ATCC), or from the in-house company culture collection. The tested strains were purely used for the purposes of illustrative example, and are by no means essential for performing the invention.
(§6) The strains were processed according to procedures recommended by ATCC, or procedures that are routinely used. Frozen bacterial stocks were thawed to room temperature, and a few drops were placed on an appropriate blood agar plate. The cultures were subcultured on a fresh Mueller-Hinton agar plate (MHA) the following day, and the subcultures were again incubated overnight.
(§7) Bacterial suspensions with a turbidity equivalent to that of a 0.5 McFarland standard were prepared by suspending a tiny portion of one colony from blood agar plates in 2 mL of sterile saline. […]
(§8) The in vitro activities of the antibiotics were determined by the broth microdilution method as recommended by CLSI guidelines. […]

C. freundii B271 (SHV-5) = assay: Broth microdilution MIC, S9; format: cell-based; conditions: CAMHB, 35° C., 24 h, duplicate
Description: as §4, §5, §6, §7, §8

E. coli B308 = assay: Broth microdilution MIC, S12; format: cell-based; conditions: Escherichia coli, CAMHB, 35° C., 24 h, duplicate
Description: as §4, §5, §6, §7, §8

[5] = tested on: K. pneumoniae B401 (TEM-10, TEM-12); assay: Broth microdilution MIC, S17; format: cell-based; conditions: Klebsiella pneumoniae, CAMHB, 35° C., 24 h, duplicate
Description: as §4, §5, §6, §7, §8

E. coli B309 = assay: Broth microdilution MIC, S13; format: cell-based; conditions: Escherichia coli, CAMHB, 35° C., 24 h, duplicate
Description: as §4, §5, §6, §7, §8

E. faecalis Lek 112 = assay: Broth microdilution MIC, S14; format: cell-based; conditions: Enterococcus faecalis, LEK112, CAMHB, 35° C., 24 h, duplicate
Description: as §4, §5, §6, §7, §8

[6] = tested on: K. pneumoniae ATCC 700603 (SHV-18); assay: Broth microdilution MIC, S8; format: cell-based; conditions: Klebsiella pneumoniae, ATCC700603, CAMHB, 35° C., 24 h, duplicate
Description: as §4, §5, §6, §7, §8

E. faecalis ATCC 29212 = assay: Broth microdilution MIC, S5; format: cell-based; conditions: Enterococcus faecalis, ATCC29212, CAMHB, 35° C., 24 h, duplicate
Description: as §4, §5, §6, §7, §8

E. faecium Lek 116 = assay: Broth microdilution MIC, S15; format: cell-based; conditions: Enterococcus faecium, LEK116, CAMHB, 35° C., 24 h, duplicate
Description: as §4, §5, §6, §7, §8

E. cloacae Lek 24 (AmpC) = assay: Broth microdilution MIC, S1; format: cell-based; conditions: CAMHB, 35° C., 24 h, duplicate
Description: as §4, §5, §6, §7, §8

[7] = tested on: E. caerogenes ATCC 29751 (class II); assay: Broth microdilution MIC, S4; format: cell-based; conditions: CAMHB, 35° C., 24 h, duplicate
Description: as §4, §5, §6, §7, §8

[8] = tested on: ceftazidime-resistant strains; assay: Broth microdilution susceptibility assay, overall comparison; format: cell-based; conditions: in words, several ceftazidime-resistant strains tested
Description: as §4, §5, §6, §7, §8

C. freundii B318 (CTX-M) = assay: Broth microdilution MIC, S10; format: cell-based; conditions: Citrobacter freundii, CAMHB, 35° C., 24 h, duplicate
Description: as §4, §5, §6, §7, §8

K. pneumoniae Lek 8 = assay: Broth microdilution MIC, S16; format: cell-based; conditions: Klebsiella pneumoniae, LEK8, CAMHB, 35° C., 24 h, duplicate
Description: as §4, §5, §6, §7, §8

[9] = tested on: C. freundii Lek 17 (AmpC); assay: Broth microdilution MIC, S19; format: cell-based; conditions: Citrobacter freundii, CAMHB, 35° C., 24 h, duplicate
Description: as §4, §5, §6, §7, §8

[10] = tested on: E. cloacae Lek 14, derepressed (AmpC); assay: Broth microdilution MIC, S2; format: cell-based; conditions: CAMHB, 35° C., 24 h, duplicate
Description: as §4, §5, §6, §7, §8

K. pneumoniae Lek 22 = assay: Broth microdilution MIC, S18; format: cell-based; conditions: Klebsiella pneumoniae, LEK22, CAMHB, 35° C., 24 h, duplicate
Description: as §4, §5, §6, §7, §8

K. pneumoniae DSA 1461 = assay: Broth microdilution MIC, S7; format: cell-based; conditions: Klebsiella pneumoniae, DSA1461, CAMHB, 35° C., 24 h, duplicate
Description: as §4, §5, §6, §7, §8

E. cloacae 4013 = assay: Broth microdilution MIC, S3; format: cell-based; conditions: Enterobacter cloacae, CAMHB, 35° C., 24 h, duplicate
Description: as §4, §5, §6, §7, §8

[11] = in words, compared to tazobactam

Sequence of class A beta-lactamase SHV-1 (P0AD63 22-286): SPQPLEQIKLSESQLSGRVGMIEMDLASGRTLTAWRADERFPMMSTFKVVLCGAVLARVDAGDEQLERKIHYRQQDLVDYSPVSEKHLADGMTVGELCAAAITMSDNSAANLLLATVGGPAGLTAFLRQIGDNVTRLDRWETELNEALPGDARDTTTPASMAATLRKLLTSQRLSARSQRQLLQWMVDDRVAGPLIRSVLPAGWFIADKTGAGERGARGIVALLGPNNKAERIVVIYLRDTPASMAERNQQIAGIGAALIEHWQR
Sequence of class C beta-lactamase P99 (AmpC) (P05364 21-381): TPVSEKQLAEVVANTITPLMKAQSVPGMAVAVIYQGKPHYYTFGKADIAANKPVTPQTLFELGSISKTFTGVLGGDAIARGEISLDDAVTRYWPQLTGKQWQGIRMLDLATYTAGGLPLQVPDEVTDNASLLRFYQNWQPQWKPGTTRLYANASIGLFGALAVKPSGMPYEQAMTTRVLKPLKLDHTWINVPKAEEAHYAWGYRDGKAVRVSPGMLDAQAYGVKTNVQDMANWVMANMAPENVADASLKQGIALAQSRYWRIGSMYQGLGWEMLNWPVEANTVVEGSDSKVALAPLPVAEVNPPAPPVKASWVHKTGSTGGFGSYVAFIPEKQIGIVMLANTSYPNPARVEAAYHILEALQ
Sequence of class A beta-lactamase TEM-1 (P62593 24-286 limits assumed): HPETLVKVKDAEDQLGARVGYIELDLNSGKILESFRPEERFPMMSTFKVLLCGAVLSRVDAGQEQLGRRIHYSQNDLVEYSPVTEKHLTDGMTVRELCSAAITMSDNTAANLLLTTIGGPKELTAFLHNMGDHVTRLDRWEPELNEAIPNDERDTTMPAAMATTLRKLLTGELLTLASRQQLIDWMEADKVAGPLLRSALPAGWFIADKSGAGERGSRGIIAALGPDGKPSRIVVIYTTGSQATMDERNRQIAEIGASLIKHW

## CO[C@H]1CCC[C@H]2C1=C(C(=O)O)N1C(=O)[C@H]([C@H](O)C(F)(F)F)[C@@H]21 [LK-178, Sodium (4S,8S,9R,10S)-4-methoxy-10-[1-(S)-hydroxy-2,2,2-trifluoroethyl]-11-oxo-azatricyclo[7.2.0.0^3,8]undec-2-ene-2-carboxylate]
[1]
  pIC50: 5.96
[2]
  pIC50: 6.38
[3]
  pIC50: 5.08

## CO[C@H]1CCC[C@H]2C1=C(C(=O)[O-])N1C(=O)[C@H]([C@H](O)CF)[C@@H]21.[Na+] [LK-180, Sodium salt of (4S,8S,9R)-4-methoxy-10-(1-(S)-hydroxy-fluoroethyl)-11-oxo-1-azatricyclo-[7.2.0.0 (3,8)]undec-2-ene-2-carboxylic acid]
[4]
  MIC: 8 µg/mL
C. freundii B271 (SHV-5)
  MIC S9: 16 mg/L
E. coli B308
  MIC: 4 µg/mL
[1]
  pIC50: 7.92
[1]; [11]
  activity against SHV-1 enzyme as compared to tazobactam: highly potentiated activity
[5]
  MIC: 8 µg/mL
E. coli B309
  MIC: 4 µg/mL
[2]
  pIC50: 9.30
[2]; [11]
  activity against AmpC enzyme as compared to tazobactam: highly potentiated activity
E. faecalis Lek 112
  MIC: 4 µg/mL
[6]
  MIC: 2 µg/mL
E. faecalis ATCC 29212
  MIC: 4 µg/mL
[3]
  pIC50: 6.30
E. faecium Lek 116
  MIC: 32 µg/mL
E. cloacae Lek 24 (AmpC)
  MIC S1: 4 mg/L
E. cloacae Lek 24 (AmpC); Enterobacter cloacae
  MIC: 8 µg/mL
[7]
  MIC: 16 µg/mL
[8]
  antibiotic activity compared to Tazocin®: superior to Tazocin®
C. freundii B318 (CTX-M)
  MIC: 128 µg/mL
K. pneumoniae Lek 8
  MIC: 16 µg/mL
[9]
  MIC: 8 µg/mL
[10]
  MIC S2: 4 mg/L
K. pneumoniae Lek 22
  MIC: 32 µg/mL
K. pneumoniae DSA 1461
  MIC: 4 µg/mL
E. cloacae 4013
  MIC: 64 µg/mL
